The values that follow are results of earlier work, collected in article PMC10801393 (Clinical and Translational Science, 2024).

Like-named read-outs stand apart in the source and are kept apart here.

Test in series [1]: not given
The source holds these as a separate data set.

For series [2] the following is noted: tamoxifen 20 mg/day.

Consider `CC(C)(C(=O)O)c1ccc(C(O)CCCN2CCC(C(O)(c3ccccc3)c3ccccc3)CC2)cc1` (centres unmarked) [fexofenadine, Fexofenadine], for which the BDDCS class entry was “class 3”.

Take `Cc1ncc2n1-c1ccc(Cl)cc1C(c1ccccc1F)=NC2` [midazolam]: the “oral clearance geometric mean” value is on record as 24.10 mL/min/kg in series [1] (postmenopausal group) and 30.09 mL/min/kg in series [1] (premenopausal group).

Turning to `CC/C(=C(\c1ccccc1)c1ccc(OCCN(C)C)cc1)c1ccccc1` [tamoxifen, Tamoxifen], the “steady‐state plasma concentration (C ss)” value in series [2] (postmenopausal patients) is on record as 201.23 ng/mL; in series [2] (premenopausal patients), 116.95 ng/mL.
